Measurements from patent US4374149A, “α-{[(Arylalkyl)amino]alkyl}-4-hydroxy-3-(lower-alkylsul finyl)benzenemethanols” (Sterling Drug Inc., priority 1978, dated 1983).

How the values were obtained:
[1] = test system: systolic blood pressure; experiment: Antihypertensive activity, reduction in systolic blood pressure, single oral medication, unanesthetized spontaneous hypertensive rat; format: in vivo; settings: P.O., single dose, unanesthetized SH rat
Method: Antihypertensive activity was determined on the basis of the observed reduction in systolic blood pressure measured according to the method of H. Kersten et al., J. Lab. and Clin. Med. 32, 1090 (1947) following a single oral medication in the unanesthetized spontaneous hypertensive rat described by Okamato et al., Japan Circulation J. 27, 282 (1963).
^a AHD40 = single oral dose required to induce a 40 mm. average

[2] = test system: blood pressure; experiment: Antihypertensive activity, sustained lowering of blood pressure, repeated oral medication, unanesthetized trained renal hypertensive dog; format: in vivo
Source text: Antihypertensive activity was also judged on the basis of sustained reduction of blood pressure observed in the unanesthetized trained renal hypertensive dog following repeated oral medication according to the procedure described by Lape et al., Arch.
^b MED10 = minimum repeated oral daily dose required to effect a

[3] = test system: β-adrenergic; experiment: β-adrenergic blocking activity, inhibition of isoproterenol-elicited heart rate increase in pentobarbitalized dog; format: in vivo; settings: i.v.
Method: The β-adrenergic blocking activity was determined in the pentobarbitalized dog as judged by the ability of the test compound to inhibit the elevation in heart rate elicited by a 0.5 mcg./kg. i.v. injection of isoproterenol.
^e AED50 = approximate intravenous dose required to cause 50%

[4] = test system: isolated cat atria; experiment: Cardiotonic test procedure I, isolated cat atria; settings: for Increase in right atrial force / Increase in right atrial rate: in vitro
Method: The efficacy of this compound was judged, in vitro, on the basis of percent increase in contractile force in isolated cat atria and papillary muscle and, in vitro, on the basis of percent increase in cardiac contractile force in the intact anesthetized dog. Male cats weighing from 0.8 to 1.5 kg. were anesthetized with α-chloralose (80 mg./kg. i.p.). The chest was opened, the heart excised and the two atria dissected. A silk suture was tied to each of two opposite sides of the right atrium. One side of the atrium was tied to a glass rod and then mounted in a 50 ml. organ bath filled with Tyrode's solution. […] The transducer was then connected to a Grass polygraph and the force and rate of atrial contraction was recorded continuously. The left atrium was treated similarly using silver wire instead of silk sutures. The silver wire also served as a stimulating electrode. Both atria were mounted in the same bath. The right atrium was beating spontaneously due to the presence of the sinoatrial node, while the left atrium was stimulated electrically at a rate of 3 beats/sec. by suprathreshold rectangular pulses of 5 millisecond duration. The Tyrode's solution bathing the atria was of the following composition (in mM): NaCl 136.87, KCl 5.36, NaH2 PO4 0.41, CaCl2 1.80, MgCl2 6H2 O 1.05, NaHCO3 11.90, glucose 5.55 and EDTA 0.04. […] The preparation was left to equilibrate for one hour before any drug was added. The bathing fluid was changed 3 to 4 times during the equilibration time. At the end of equilibration period, the drug dissolved in a vehicle or the vehicle alone was added to the tissue bath and the full response recorded. The vehicle used was Tyrode' s solution to which, if required, sufficient acid was added to cause solution of the drug. […] Generally, a dose response study of at least 3 doses was done in the same preparation.

[5] = test system: papillary muscle; experiment: Cardiotonic test procedure IB, isolated cat papillary muscle; settings: in vitro
Method: The efficacy of this compound was judged, in vitro, on the basis of percent increase in contractile force in isolated cat atria and papillary muscle and, in vitro, on the basis of percent increase in cardiac contractile force in the intact anesthetized dog. Male cats 0.8 to 1.5 kg. were anethetized with α-chloralose (80 mg./kg. i.p.). The chest was opened and the heart excised. The heart was dipped and shaken in Tyrode's solution for the removal of blood from the cavities. The right ventricle was then slit open and the small and thin (about 1 mm. in diameter and 4 to 7 mm. in length) papillary muscles were dissected out. A silver wire was attached to each of the two ends of the papillary muscle. The ventricular end was attached to a platinum electrode and mounted in a tissue bath containing Tyrode's solution described above. The silver wire on the valvular end of the muscle was attached to a force displacement transducer for the measurement of the force and rate of muscle contraction. The muscle was stimulated at a rate of 3 beats/sec. by suprathreshold rectangular pulses of 5 millisecond duration. The rest of the procedure was continued as described above.

[6] = test system: cardiac contractile force; experiment: Cardiotonic test procedure II, intact anesthetized dog; format: in vivo, mongrel dogs
Method: The efficacy of this compound was judged, in vitro, on the basis of percent increase in contractile force in isolated cat atria and papillary muscle and, in vitro, on the basis of percent increase in cardiac contractile force in the intact anesthetized dog. The in vivo test procedure used is described as follows: Mongrel dogs of both sexes and varying in weight from 9 to 15 kg. were anesthetized with 30 mg./kg. pentobarbital sodium administered intravenously. The trachea was exposed and cannulated. The tracheal cannula was then attached to a Harvard respiratory pump using room air. The right femoral artery and vein were cannulated. […] The venous cannula was used for the intravenous administration of drugs. Pin electrodes were attached to the right forelimb and left hindlimb. The electrodes were then connected to a Grass polygraph for the continuous recording of the standard limb lead II electrocardiogram. A ventro-dorsal incision at the third inter-costal space was made, the ribs laterally retracted and the pericardium slit open to expose the myocardium. The base of the aorta was dissected and a flow probe was fitted around it. The flow probe was attached to a square wave electromagnetic flowmeter (Carolina Medical Electronics). The flowmeter was then connected to a Grass polygraph for the continuous recording of aortic blood flow. This flow was used as an index of cardiac output (actual cardiac output is aortic blood flow+coronary blood flow). Cardiac contractile force was measured by suturing a Walton-Brodie strain gauge to the wall of the right ventricle. At the end of the surgical procedure, the animal was left to rest and equilibrate for one hour with continuous recording of blood pressure, EKG, cardiac contractile force and aortic blood flow. After the equilibration period, the vehicle or the drug dissolved in the vehicle was administered by intravenous infusion (i.v. inf.), intravenous bolus (i.v. bol.) or intraduodenally (i.d.) and the response of all the parameters measured to drug administration was recorded continuously for different periods of times depending on the route of drug administration. When the route of administration was i.v. inf., the drug was administered until a peak effect was reached and infusion was then maintained for ten minutes. The above-described test systems were standardized using dopamine.

[7] = test system: arrhythmia; experiment: Antiarrhythmic activity (in words, test not specified); settings: in vivo
Method: The test procedures were carried out as follows.

COc1ccc(CCC(C)NCC(=O)c2ccc(O)c([S+](C)[O-])c2)cc1.Cl (stereo not shown) [Example 26B, 4'-hydroxy-2-[3-(4-methoxyphenyl)-1-methylpropyl]amino-3'-(methylsulfinyl)-acetophenone hydrochloride]
Antihypertensive activity SH Rat AHD40 (single oral dose required to induce a 40 mm. average reduction in systolic blood pressure) [1]: ca. 40.0 mg./kg.
Renal Hypertensive Dog MED10 (minimum repeated oral daily dose for sustained lowering of blood pressure of 10% or greater) ([2]; administered once per day): > 20 mg/kg
Actual percentage reduction in blood pressure observed at the indicated dose ([2]; once per day, 20 mg./kg.): 0
Actual percentage inhibition of heart rate increase above control level observed at the indicated dose ([3]; 1.0 mg./kg.): 18%
Dog β-blockade AED50 (approximate intravenous dose for 50% inhibition of isoproterenol-elicited heart rate increase) ([3]; pentobarbitalized dog): > 1.0 mg/kg
Increase in right atrial force ([4]; 10 /ml.): 1%
Increase in right atrial rate ([4]; 10 /ml.): 0%
Increase in right atrial force ([4]; 30 /ml.): 5%
Increase in right atrial rate ([4]; 30 /ml.): 3%
Increase in right atrial force ([4]; 100 /ml.): 6%
Increase in right atrial rate ([4]; 100 /ml.): 8%
Cardiotonic activity (in words) ([4]; one or more of the cardiotonic test procedures): cardiotonic activity
Increase in papillary muscle force ([5]; 10 /ml.): 7%
Increase in papillary muscle force ([5]; 30 /ml.): 23%
Increase in papillary muscle force ([5]; 100 /ml.): 38%
Increase in cardiac contractile force ([6]; 1.0 mg./kg., first series): 22%
Increase in cardiac contractile force ([6]; 1.0 mg./kg., second, similar series): 4%
Increase in cardiac contractile force ([6]; 3.0 mg./kg., first series): 25%
Increase in cardiac contractile force ([6]; 3.0 mg./kg., second, similar series): 12%
Increase in cardiac contractile force ([6]; 10.0 mg./kg., first series): 59%
Increase in cardiac contractile force ([6]; 10.0 mg./kg., second, similar series): 50%
Antiarrhythmic activity (in words) [7]: antiarrhythmic activity
